In the first assay the target is T1, recombinant human SK (Homo sapiens, UniProt Q9NYA1).
T1 construct: glutathione-S-transferase (GST) (N); made in house; host or cells: bacteria (pGEX vector)
T1 sequence (Q9NYA1 whole entry): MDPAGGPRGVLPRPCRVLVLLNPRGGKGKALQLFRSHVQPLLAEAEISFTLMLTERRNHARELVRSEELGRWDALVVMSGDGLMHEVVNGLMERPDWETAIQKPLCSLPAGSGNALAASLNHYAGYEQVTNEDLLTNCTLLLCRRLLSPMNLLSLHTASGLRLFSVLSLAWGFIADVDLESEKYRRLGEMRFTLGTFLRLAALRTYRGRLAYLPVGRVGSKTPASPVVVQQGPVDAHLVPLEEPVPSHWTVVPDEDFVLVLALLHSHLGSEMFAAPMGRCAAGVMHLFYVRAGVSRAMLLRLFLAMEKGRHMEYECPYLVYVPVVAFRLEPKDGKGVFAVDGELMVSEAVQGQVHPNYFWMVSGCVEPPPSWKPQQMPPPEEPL
Put plainly: Inhibition of recombinant human SK, LC/MS/MS assay. In kind it is biochemical. The settings on record: 6 μg/ml compound. Here is the method: An assay for identifying inhibitors of recombinant human SK has been established (French et al., 2003, Cancer Res 63: 5962). cDNA for human SK was subcloned into a pGEX bacterial expression vector, which results in expression of the enzyme as a fusion protein with glutathione-S-transferase, and the fusion protein is then purified on a column of immobilized glutathione. SK activity is measured by incubation of the recombinant SK with [^3H]sphingosine and 1 mM ATP under defined conditions, followed by extraction of the assay mixture with chloroform:methanol under basic conditions. […] Radioactivity in aliquots of the aqueous phase is then quantified as a measure of [^3H]S1P formation. There is a low background level of partitioning of [^3H]sphingosine into the aqueous phase, and addition of the recombinant SK greatly increases the formation of [^3H]S1P.
In an alternate assay procedure, the recombinant human SK was incubated with unlabeled sphingosine and ATP as described above. After 30 minutes, the reactions were terminated by the addition of acetonitrile to directly extract the newly synthesized S1P. The amount of S1P in the samples is then quantified as follows. C17 base D-erythro-sphingosine and C17 S1P are used as internal standards for sphingosine and S1P, respectively. These seventeen-carbon fatty acid-linked sphingolipids are not naturally produced, making these analogs excellent standards. The lipids are then fractionation by High-Performance Liquid Chromatography using a C8-reverse phase column eluted with 1 mM methanolic ammonium formate/2 mM aqueous ammonium formate. A Finnigan LCQ Classic LC-MS/MS is used in the multiple reaction monitoring positive ionization mode to acquire ions at m/z of 300 (precursor ion)→282 (product ion) for sphingosine and 380→264 for S1P. Calibration curves are generated by plotting the peak area ratios of the synthetic standards for each sphingolipid, and used to determine the normalized amounts of sphingosine and S1P in the samples.
Each Compound of this invention was tested for its ability to inhibit recombinant SK using the LC/MS/MS assay described above. Typically, the Compounds were individually dissolved in dimethylsulfoxide and tested at a final concentration of 6 micrograms/ml.
A word on the inhibition: it is the drop in the measured response relative to a control, in per cent. For the compound `CCCCCCCCCCCCCC(=O)Nc1nc(-c2ccc(Cl)cc2)cs1` [Compound 2, Tetradecanoic acid [4-(4-chloro-phenyl)-thiazol-2-yl]-amide], the inhibition at 6 µg/mL turned out to be 30%. Still for that read-out and setting: the result for `C=CCCCCCCCCC(=O)Nc1nc(-c2ccc(Cl)cc2)cs1` [Compound 4, Undec-10-enoic acid [4-(4-chloro-phenyl)-thiazol-2-yl]-amide] reads 53%; that for `O=C(C=Cc1ccc([N+](=O)[O-])cc1)Nc1nc(-c2ccc(Cl)cc2)cs1` [Compound 5, N-[4-(4-Chloro-phenyl)-thiazol-2-yl]-3-(4-nitro-phenyl)-acrylamide], 0%. On the same count and under the same terms, the result for `CCCCCCCCC=CCCCCCCCC(=O)Nc1nc(-c2ccc(Cl)cc2)cs1` [Compound 6, Octadec-9-enoic acid [4-(4-chloro-phenyl)-thiazol-2-yl]-amide] reads 0%; that for `O=C(C=Cc1ccccc1)Nc1nc(-c2ccc(Cl)cc2)cs1` [Compound 7, N-[4-(4-Chloro-phenyl)-thiazol-2-yl]-3-phenyl-acrylamide], 71%.

Consider `O=C(NCc1cc(C(F)(F)F)cc(C(F)(F)F)c1)c1nc(-c2ccc(Cl)cc2)cs1` [Compound 60, 4-(4-Chloro-phenyl)-thiazole-2-carboxylic Acid 3,5-bis-trifluoromethyl-benzylamide], for which the inhibition at 6 µg/mL amounted to 87%.

For `O=C(NCCc1ccncc1)c1nc(-c2ccc(Cl)cc2)cs1` [Compound 61, 4-(4-Chloro-phenyl)-thiazole-2-carboxylic Acid (2-pyridin-4-yl-ethyl)-amide], the inhibition at 6 µg/mL is 0%.

On to `O=C(Nc1nnn[nH]1)c1nc(-c2ccc(Cl)cc2)cs1` [Compound 62, 4-(4-Chloro-phenyl)-thiazole-2-carboxylic Acid (1H-tetrazol-5-yl)-amide], for which the inhibition at 6 µg/mL is 60%. Regarding `CS(=O)(=O)c1ccc(CNC(=O)c2nc(-c3ccc(Cl)cc3)cs2)cc1` [Compound 63, 4-(4-Chloro-phenyl)-thiazole-2-carboxylic Acid 4-methanesulfonyl-benzylamide], the inhibition at 6 µg/mL is 3%. `O=C(NCCc1ccc2c(c1)OCO2)c1nc(-c2ccc(Cl)cc2)cs1` [Compound 64, 4-(4-Chloro-phenyl)-thiazole-2-carboxylic Acid (2-benzo[1,3]dioxol-5-yl-ethyl)-amide]: the inhibition at 6 µg/mL is 90%. On the same count and under the same terms, the value for `O=C(Nc1nc(-c2ccc(Cl)cc2)cs1)c1cccc(F)c1` [Compound 65, N-[4-(4-Chloro-phenyl)-thiazol-2-yl]-3-fluoro-benzamide] was 66%; that for `O=C(Nc1nc(-c2ccc(Cl)cc2)cs1)c1ccc(C(F)(F)F)cc1F` [Compound 66, N-[4-(4-Chloro-phenyl)-thiazol-2-yl]-2-fluoro-4-trifluoromethyl-benzamide] was 61%; that for `O=C(Nc1nc(-c2ccc(Cl)cc2)cs1)c1ccc(F)cc1` [Compound 67, N-[4-(4-Chloro-phenyl)-thiazol-2-yl]-4-fluoro-benzamide] was 41%. Still for that read-out and setting: the result for `O=C(Nc1nc(-c2ccc(Cl)cc2)cs1)c1ccc(Cl)cc1Cl` [Compound 68, 2,4-Dichloro-N-[4-(4-chloro-phenyl)-thiazol-2-yl]-benzamide] reads 73%; that for `O=C(Nc1nc(-c2ccc(Cl)cc2)cs1)C(Cl)c1ccccc1` (stereo not shown) [Compound 69, 2-Chloro-N-[4-(4-chloro-phenyl)-thiazol-2-yl]-2-phenyl-acetamide], 55%.

As for `O=C(Cc1ccc(F)cc1)Nc1nc(-c2ccc(Cl)cc2)cs1` [Compound 70, N-[4-(4-Chloro-phenyl)-thiazol-2-yl]-2-(4-fluoro-phenyl)-acetamide], the inhibition at 6 µg/mL came out at 54%. Same read-out and setting: the result for `O=C(NCc1cc(F)cc(C(F)(F)F)c1)c1nc(-c2ccc(Cl)cc2)cs1` [Compound 75, 4-(4-Chloro-phenyl)-thiazole-2-carboxylic acid 3-fluoro-5-trifluoromethyl-benzylamide] reads 3%; that for `O=C(NCCN1CCOCC1)c1nc(-c2ccc(Cl)cc2)cs1` [Compound 76, 4-(4-Chloro-phenyl)-thiazole-2-carboxylic acid (2-morpholin-4-yl-ethyl)-amide], 51%; that for `Fc1cc(F)cc(OCNc2nc(-c3ccc(Cl)cc3)cs2)c1` [Compound 77, [4-(4-Chloro-phenyl)-thiazol-2-yl]-(3,5-difluoro-phenoxymethyl)-amine], 85%. The same measure, in the same setting: the result for `Fc1ccc(F)c(OCNc2nc(-c3ccc(Cl)cc3)cs2)c1` [Compound 78, [4-(4-Chloro-phenyl)-thiazol-2-yl]-(2,5-difluoro-phenoxymethyl)-amine] reads 70%; that for `Fc1cc(F)cc(COCNc2nc(-c3ccc(Cl)cc3)cs2)c1` [Compound 79, [4-(4-Chloro-phenyl)-thiazol-2-yl]-(3,5-difluoro-benzyloxymethyl)-amine], 53%.

The test system of the next assay is MCF-7 human breast adenocarcinoma cells. Put plainly: Cytotoxicity, SRB assay, 48 h. In kind it is cell-based. The settings on record: Homo sapiens, MCF7; Table 6; 48 h, SRB, inhibition of cell proliferation; read-out: MCF-7 IC50. Here is the method: To further assess the biological efficacies of the Compounds in intact cells, each Compound was evaluated for cytotoxicity using human cancer cell lines. These experiments followed methods that have been extensively used. Cell lines tested included MCF-7 human breast adenocarcinoma cells. The indicated cell lines were treated with varying doses of the test Compound for 48 h. Cell survival was then determined using the SRB binding assay (Skehan et al., 1990, J Natl Cancer Inst 82: 1107), and the concentration of compound that inhibited proliferation by 50% (the IC50) was calculated. Values (in μM) represent the mean±sd for replicate trials.
The term IC50 denotes the midpoint of a concentration-inhibition curve. Consider `CCCCCCCCCCCCCC(=O)Nc1nc(-c2ccc(Cl)cc2)cs1` [Compound 2, Tetradecanoic acid [4-(4-chloro-phenyl)-thiazol-2-yl]-amide], for which the IC50 stood at 1.9 µM.

With `C=CCCCCCCCCC(=O)Nc1nc(-c2ccc(Cl)cc2)cs1` [Compound 4, Undec-10-enoic acid [4-(4-chloro-phenyl)-thiazol-2-yl]-amide], the IC50 was 33 µM. With `O=C(C=Cc1ccc([N+](=O)[O-])cc1)Nc1nc(-c2ccc(Cl)cc2)cs1` [Compound 5, N-[4-(4-Chloro-phenyl)-thiazol-2-yl]-3-(4-nitro-phenyl)-acrylamide], the concentration for half-maximal inhibition (IC50) stood at 16 µM. Still for that read-out and setting: the result for `CCCCCCCCC=CCCCCCCCC(=O)Nc1nc(-c2ccc(Cl)cc2)cs1` [Compound 6, Octadec-9-enoic acid [4-(4-chloro-phenyl)-thiazol-2-yl]-amide] reads 105 µM.

For the compound `O=C(C=Cc1ccccc1)Nc1nc(-c2ccc(Cl)cc2)cs1` [Compound 7, N-[4-(4-Chloro-phenyl)-thiazol-2-yl]-3-phenyl-acrylamide], the half-inhibitory concentration (IC50) stood at 18 µM. The same measure, in the same setting: the result for `COc1cc(C=CC(=O)Nc2nc(-c3cccc(Cl)c3)cs2)ccc1O` [Compound 9, N-[4-(3-Chloro-phenyl)-thiazol-2-yl]-3-(4-hydroxy-3-methoxy-phenyl)-acrylamide] reads 7.8 µM; that for `CCCC(=O)Oc1ccc(C=CC(=O)Nc2nc(-c3ccc(Cl)cc3)cs2)cc1OC(=O)CCC` [Compound 11, Butyric acid 2-butyryloxy-5-{2-[4-(4-chloro-phenyl)-thiazol-2-ylcarbamoyl]-vinyl}-phenyl ester], 10 µM; that for `CC(=O)Oc1ccc(C=CC(=O)Nc2nc(-c3ccc(Cl)cc3)cs2)cc1` [Compound 12, Acetic acid 4-{2-[4-(4-chloro-phenyl)-thiazol-2-ylcarbamoyl]-vinyl}-phenyl ester], 125 µM.

On to `CCCC(=O)Oc1ccc(CC(=O)Nc2nc(-c3ccc(Cl)cc3)cs2)cc1OC` [Compound 16, Butyric acid 4-{[4-(4-chloro-phenyl)-thiazol-2-ylcarbamoyl]-methyl}-2-methoxy-phenyl ester], for which the concentration for half-maximal inhibition (IC50) turned out to be 5.6 µM.

For `CCCC(=O)Oc1ccc(CC(=O)Nc2nc(-c3ccc(Cl)cc3)cs2)cc1OC(=O)CCC` [Compound 17, Butyric acid 2-butyryloxy-5-{[4-(4-chloro-phenyl)-thiazol-2-ylcarbamoyl]-methyl}-phenyl ester], the IC50 amounted to 4 µM. Take `CCCC(=O)Oc1cc(C=CC(=O)Nc2nc(-c3ccc(Cl)cc3)cs2)ccc1OC` [Compound 18, Butyric acid 5-{2-[4-(4-chloro-phenyl)-thiazol-2-ylcarbamoyl]-vinyl}-2-methoxy-phenyl ester]: the IC50 turned out to be 2.7 µM. The same measure, in the same setting: the result for `O=C(Nc1nc2cc(Cl)ccc2o1)c1ccccc1[N+](=O)[O-]` [Compound 87, N-(5-Chloro-benzooxazol-2-yl)-2-nitro-benzamide] reads 9.8 µM.

As to `O=C(C=Cc1ccccc1)Nc1nc2cc(Cl)ccc2o1` [Compound 88, N-(5-Chloro-benzooxazol-2-yl)-3-phenyl-acrylamide], the IC50 stood at 1.3 µM. Same read-out and setting: the value for `O=C(C=Cc1ccc([N+](=O)[O-])cc1)Nc1nc2cc(Cl)ccc2o1` [Compound 89, N-(5-Chloro-benzooxazol-2-yl)-3-(4-nitro-phenyl)-acrylamide] was 1.2 µM; that for `C=CCCCCCCCCC(=O)Nc1nc2cc(Cl)ccc2o1` [Compound 90, Undec-10-enoic acid (5-chloro-benzooxazol-2-yl)-amide] was 19 µM; that for `CCCCCCCCCCCCCC(=O)Nc1nc2cc(Cl)ccc2o1` [Compound 91, Tetradecanoic Acid (5-chloro-benzooxazol-2-yl)-amide] was 2.6 µM. On the same count and under the same terms, the value for `CCCCCCCCCCCCCCCC(=O)Nc1nc2cc(Cl)ccc2o1` [Compound 92, Hexadecanoic Acid (5-chloro-benzooxazol-2-yl)-amide] was 7.6 µM; that for `O=C(Nc1nc2cc(Cl)ccc2s1)c1ccccc1O` [Compound 96, N-(5-Chloro-benzothiazol-2-yl)-2-hydroxy-benzamide] was 24 µM.

The assay is the same for the next values; noted with them: Table 6; 48 h, SRB, inhibition of cell proliferation; read-out: MCF-7 IC50.
As to “4-(4-Chloro-phenyl)-thiazole-2-carboxylic acid (2-pyridin-4-yl)-amide [Compound 74]”, the IC50 turned out to be 120 µM.

These data come from patent US20100137315A1, “Sphingosine Kinase Inhibitors and Methods of Their Use” (APOGEE BIOTECHNOLOGY CORPORATION, priority 2005, published 2010).
